Assays:
Phytophthora infestans = type: cell-based; conditions: 7 days after inoculation, control = 100%
Botrytis cinerea = assay: Microtiterplate test: activity against the grey mold Botrytis cinerea (Botrci), also comparison test CM1; type: cell-based; conditions: 7 days after inoculation, control = 100%
Septoria tritici = assay: Microtest: activity against leaf blotch on wheat caused by Septoria tritici (Septtr), also comparison test CM3; type: cell-based; conditions: 7 days after inoculation, control = 100%
Puccinia recondita = assay: Green house CG1: preventative control of brown rust on wheat caused by Puccinia recondita (Puccrt P1); type: in vivo; conditions: 150 ppm spray, wheat seedlings, % diseased leaf area, untreated control 90
Method: The spray solutions were prepared in several steps: The stock solution were prepared: a mixture of acetone and/or dimethylsulfoxide and the wetting agent/emulsifier Wettol, which is based on ethoxylated alkylphenoles, in a relation (volume) solvent-emulsifier of 99 to 1 was added to 25 mg of the compound to give a total of 5 ml. Water was then added to total volume of 100 ml. This stock solution was diluted with the described solvent-emulsifier-water mixture to the given concentration. CG1 Preventative Control of Brown Rust on Wheat Caused by Puccinia recondita (Puccrt P1) The first two developed leaves of pot-grown wheat seedling were sprayed to run-off with an aqueous suspension, containing the concentration of active ingredient or their mixture as described below. The next day the plants were inoculated with spores of Puccinia recondita. […] The extent of fungal attack on the leaves was visually assessed as % diseased leaf area.

Row | Compound | CM2 Growth (%) at 31 ppm Phytin (Phytophthora infestans) [%] | CM1 Growth (%) at 8 ppm Botrci (Botrytis cinerea) [%] | CM3 Growth (%) at 8 ppm Septtr (Septoria tritici) [%] | CG1 Disease (%) at 150 ppm Puccrt P1 (Puccinia recondita) [%]
1 | OC1(c2ccc(F)cc2)CCCCC1n1cncn1 (stereo not drawn) [Example No. 28 of EP 0 152 031, reference compound] | 93 | 40 | 83 | –
2 | OC1(c2ccc(-c3ccc(Cl)cc3)cc2)CCCCC1n1cncn1 (stereo not drawn) [Compound I-15] | – | 0 | 2 | –
3 | OC1(c2ccc(Oc3ccc(Cl)cc3)cc2)CCCCC1n1cncn1 (stereo not drawn) [Compound I-11, 1-[4-(4-chlorophenoxyl)phenyl]-2-(1,2,4-triazol-1-yl)cyclohexanol] | 57 | 0 | 0 | –
4 | OC1(c2cccc(-c3ccc(Cl)cc3)c2)CCCCC1n1cncn1 (stereo not drawn) [Compound I-19] | 73 | 0 | 1 | –
5 | OC1(c2ccc(-c3ccccc3)cc2)CCCCC1n1cncn1 (stereo not drawn) [Compound I-12] | 41 | 0 | 1 | –
6 | OC1(c2ccc(Cl)cc2)CCCCC1n1cncn1 (stereo not drawn) [reference compound] | 78 | – | 52 | –
7 | OC1(c2ccc(-c3ccc(F)cc3)cc2)CCCCCC1n1cncn1 (stereo not drawn) | – | – | – | 10
8 | OC1(c2ccc(Cl)cc2)CCCCCC1n1cncn1 (stereo not drawn) [reference compound] | – | – | – | 30
9 | OC1(c2ccccc2)CCCCC1n1cncn1 (stereo not drawn) [Example No. 25 of EP 0 152 031, reference compound] | 94 | 70 | 80 | –

— patent US20150307460A1, “Substituted Triazoles and Imidazoles and Their Use as Fungicides” (BASF SE, priority 2012, published 2015)
